Entries after “also recorded” stand apart in the source; their conditions may differ.
Experiments:
[1] = system: E. coli; assay: Antimicrobial susceptibility testing (AST) with MST read-out of 16S rRNA; parameters: dose or concentration left out as unconfirmed; details: 5*10^5 bacteria; 90-150 minutes
Procedure: Kanamycin resistant E. coli bacteria, DH5α or BL-21, were maintained as frozen stocks at −80° C. in homemade L.B (Bacto tryptone 10 g/L, NaCl 10 g/L Bacto yest extract 5 g/L in autoclavable DDW) supplemented with 50% Glycerol as cryoprotective agent. Cultures were started from frozen stocks and cultivated at 37° C. overnight, at the presence of 30 μg/ml Kanamycin. After starter growth, bacteria amount was measured using optical density for further experiments.
Bacteria was grown as described in “bacterial growth” section and adjusted to 0.1 O.D for a second growing step after overnight starter. When reached 0.6 O.D, bacterial concentration adjusted to 7.143*10^5 bacteria/ml and 0.7 ml (5*10^5 bacteria) were divided to slit-cap Eppendorf tubes containing Ampicillin antibiotic or water as control. The tubes were placed in a temperature control thermo-mixer for further growth at 37° C. At an indicated time-point, tubes were taken out combined with RNA protect reagent for RNA extraction as previously described.

[2] = system: S-gene RNA (SARS-CoV2); format: binding
[3] = MST of Dox alone in hybridization solution; format: physicochemical; details: 3.125-100 μM Dox; no RNA, no probes; blue mode
Procedure: In order to investigate the possibility that Dox monomers interact with each other, thereby causing Dox to migrate into the heating zone particularly at high Dox concentrations, Dox was incubated in hybridization solution without the presence of either S-gene RNA or the DNA probes.

[4] = system: 16S rRNA (E. coli); assay: MST of Cy5 probes hybridized with total bacterial RNA; format: binding
Procedure: For bacterial RNA extraction, DH5α E. coli cells transfected with pcDNA3.1+ plasmid were grown overnight in LB medium containing 100 μg/ml ampicillin. The concentration of bacterial cells was determined according to OD at 600 nm, and ˜7·10^8 cells were taken for RNA extraction. 1 volume of bacterial culture was mixed with 2 volumes of RNAprotect® Bacteria Reagent (QIAGEN), vortexed for 5 seconds and incubated for 5 minutes at room temperature. The sample was then centrifuged for 10 minutes at 5,000×g at room temperature. After discarding supernatant, the pellet was resuspended in 100 μl TE buffer (10 mM Tris-HCl, 1 mM EDTA, pH 8) containing 1 mg/ml lysozyme. The samples were vortexed for 5 seconds, and then incubated at room temperature for 10 minutes with vortexing every 2 minutes. 1 ml TRIzol™ reagent was added to the sample. The sample was incubated at room temperature for 5 minutes, and then RNA extraction was performed as described hereinabove.
RNA was extracted from a sample, and after extraction, the RNA pellet was solubilized and hybridized with a specific fluorescently labeled DNA probe in a hybridization solution (as schematically depicted in FIG. 1). After hybridization, the hybridized sample was loaded into an MST capillary and inserted into a Monolith™ MST instrument (NanoTemper Technologies GmbH, Germany). This instrument included a blue mode (493 nm excitation, […]) and red mode ([…], 670 nm emission) for detection, and an I.R laser (1475 nm+/−15 nm) for heating. The intensities for both fluorescence detection (LED) and IR laser are adjustable, in a range of 0%-100%, wherein the temperature gradient generated has a temperature difference of up to about 2-8° C. Thermophoretic force was induced by infrared laser after 1 second, and maintained for 2 seconds, for a total of a 3 second measurement window (measurement time may optionally be further reduced to 2 seconds using current available MST instruments).
For RNA titration measurements, the extracted RNA solution was diluted to X2 and a serial dilution was prepared in water. Hybridization solutions were prepared as described herein, were X1 solution consisted of SSC buffer X1, 0.05% TWEEN™ 20 surfactant, and 1% formamide unless indicated otherwise. Fluorescently labeled probes were diluted from a 100 μM stock to 1:2400 in hybridization solution X2, denatured for 5 minutes at 100° C. and then incubated on ice for 5 minutes. If a mixture of uniformly labeled probes was prepared, the probes were diluted to a 1:1200 dilution in water and then diluted to 1:2400 with hybridization solution X4 (1:1/number of probes) to create equal molarity of the fluorescent dye. The probe solution was combined with the titration series in a 1:1 (v/v) ratio (10 μL total volume) and allowed to hybridize at a defined temperature for a given time as described. If post-hybridization with intercalating agents (ICA), doxorubicin or Midori™ Green, was performed, the samples were combined with ICA X5 solution 4:1 (v:v) ratio, 8 μL and 2 μL respectively. For cell based measurements, after extraction, the RNA pellet was solubilized and hybridized with a specific fluorescently labeled DNA probe in a hybridization solution (as schematically depicted in FIG. 1).
In order to determine the optimal hybridization temperature, one of the designed probes (16S1^Cy5) was incubated with increasing concentrations of bacterial RNA at different temperatures for 10 minutes. MST measurements were then performed using the red wavelength acquisition mode.
In order to assess the effect of human RNA presence and Dox post-hybridization on signal response, 16S1^Cy5 was incubated with increasing concentrations of bacterial or human total RNA at 71° C. for 2 hours. Equal amounts were then taken for post-hybridization incubation with Dox or hybridization buffer as a control. […]

[5] = system: human total RNA; assay: MST of 16S probe / Dox with human total RNA (specificity); format: binding; details: 100 μM Dox with 16S1^Cy5; blue mode
Procedure: In order to assess the effect of human RNA presence and Dox post-hybridization on signal response, 16S1^Cy5 was incubated with increasing concentrations of bacterial or human total RNA at 71° C. for 2 hours. Equal amounts were then taken for post-hybridization incubation with Dox or hybridization buffer as a control.
In order to compare signal sensitivity in the presence and absence of Dox, ΔFnorm[‰] values of human RNA were subtracted (ΔΔFnorm), and the ratios of ΔΔFnorm[‰] were compared.

SMILES | growth of E. coli bacteria in the presence of antibiotic [1] | effect of Dox on slope of S^Cy5 linear regression (analytical sensitivity) ([2]; 100 μM Dox vs 0, 1 or 10 μM Dox) | effect of S-gene RNA concentration on Dox signal without DNA probe ([2]; 100 μM Dox, no S^Cy5 probe, blue mode) | Dox fluorescence dependence on S-gene RNA concentration ([2]; 1, 10 or 100 μM Dox, S^Cy5 present, blue mode) | effect of Dox on initial fluorescence intensity of S^Cy5 ([2]; 1, 10 or 100 μM Dox, dose-dependent, prior to temperature gradient) | degree of Dox migration into the heating zone [3] | effect of Dox on signal sensitivity of 16S probes ([4]; 100 μM Dox post-hybridization) | Dox signal dependence on RNA concentration ([4]; 100 μM Dox with 16S1^Cy5, blue mode) | Dox signal dependence on RNA concentration [5]
CC1(C)S[C@@H]2[C@H](NC(=O)[C@H](N)c3ccccc3)C(=O)N2[C@H]1C(=O)O [Ampicillin] | no growth was observed | – | – | – | – | – | – | – | –
COc1cccc2c1C(=O)c1c(O)c3c(c(O)c1C2=O)C[C@@](O)(C(=O)CO)C[C@@H]3O[C@H]1C[C@H](N)[C@H](O)[C@H](C)O1 [Dox, doxorubicin, reference compound] | – | steeper slope | did not noticeably affect the change in signal | dependent on S-gene RNA concentration | decreased the initial fluorescence intensity values | correlated to Dox concentration | increased signal sensitivity; also recorded: enhanced signal sensitivity to a considerable extent | dependent on the concentrations of both human RNA and bacterial RNA | dependent on the concentrations of both human RNA and bacterial RNA

From patent US20250340939A1 (priority 2021, published 2025)
